Measurements from patent EP4745137A1 (Gluetacs Therapeutics (Shanghai) Co., Ltd., priority 2023, dated 2025).

Key:
CK1α = biological target: T1, CK1α (Homo sapiens, UniProt P48729+Q96SW2); test: Western-blot assay of substrate protein degradation in hPBMCs, CK1α; assay type: cell-based; conditions: 24 hours of compound treatment, compounds tested at 50 nM and 500 nM (concentration of the table not stated)
T1 construct: endogenous in cells; host or cells: hPBMCs (Milecell Biotechnologies)

NCI-H1975 = test: Tumor cell proliferation inhibition (CellTiter-Meiluncell Luminescent Cell Viability Assay), NCI-H1975; conditions: Homo sapiens, NCI-H1975, 96 h, read-out: inhibitory activity (IC50, nM) against tumor cells proliferation, H1975
Method: The tumor cells used herein were cultured in a cell culture medium listed in table 2 at 37°C in an incubator with 5% CO2. Prior to experimentation, all cell lines used were correctly identified by STR profiling, and tested negative for mycoplasma contamination using a mycoplasma detection kit through routine screenings.
On the following day, the test compounds of the present disclosure were subjected to serial dilution. […] Subsequently, 0.5 µL of the test compound dilution was transferred into the 96-well plate containing the cells, with each well containing 100 µL of cell culture medium. […] Into the 96-well plate, the diluted test compounds and corresponding detection reagents were added, resulting in final test compound concentrations of 500 nM and 10 nM, respectively. The experimental procedure is described below using the diluted 2 µM test compound as an example.
After the cells were treated with the compounds of the present disclosure for a specified period (the treatment durations were shown in Table 3), the cell viability assay reagent was added to the culture medium according to the kit's instructions to determine cell viability. […] All controls were treated using the same procedure as the compounds of the present disclosure. The growth inhibition curves for the compounds of the present disclosure were plotted using Prism GraphPad software, and the IC50 values were calculated therefrom.

IKZF3 = biological target: T2, IKZF3 (Homo sapiens, UniProt Q96SW2+Q9UKT9); test: Western-blot assay of substrate protein degradation in hPBMCs, IKZF3; assay type: cell-based; conditions: 24 hours of compound treatment, compounds tested at 50 nM and 500 nM (concentration of the table not stated)
T2 construct: endogenous in cells; host or cells: hPBMCs (Milecell Biotechnologies)

TMD8 = test: Tumor cell proliferation inhibition (CellTiter-Meiluncell Luminescent Cell Viability Assay), TMD8; conditions: Homo sapiens, TMD8, 96 h, read-out: inhibitory activity (IC50, nM) against tumor cells proliferation, TMD8
[1] = biological target: T3, human Cereblon WT GST-tagged protein (Homo sapiens, UniProt Q96SW2); test: CRBN-binding affinity by HTRF (CEREBLON BINDING kit); conditions: HTRF inhibitory activity, CEREBLON BINDING kit; read-out: HTRF IC50
T3 construct: purchased CISBIO 64BDCRBNPEH

IKZF1 = biological target: T4, IKZF1 (Homo sapiens, UniProt Q13422+Q96SW2); test: Western-blot assay of substrate protein degradation in hPBMCs, IKZF1; assay type: cell-based; conditions: 24 hours of compound treatment, compounds tested at 50 nM and 500 nM (concentration of the table not stated)
T4 construct: endogenous in cells; host or cells: hPBMCs (Milecell Biotechnologies)

IKZF2 = biological target: T5, IKZF2 (Homo sapiens, UniProt Q96SW2+Q9UKS7); test: Western-blot assay of substrate protein degradation in hPBMCs, IKZF2; assay type: cell-based; conditions: 24 hours of compound treatment, compounds tested at 50 nM and 500 nM (concentration of the table not stated)
T5 construct: endogenous in cells; host or cells: hPBMCs (Milecell Biotechnologies)

GSPT1 = biological target: T6, GSPT1 (Homo sapiens, UniProt P15170+Q96SW2); test: Western-blot assay of substrate protein degradation in hPBMCs, GSPT1; assay type: cell-based; conditions: 24 hours of compound treatment, compounds tested at 50 nM and 500 nM (concentration of the table not stated)
T6 construct: endogenous in cells; host or cells: hPBMCs (Milecell Biotechnologies)

[2] = tested on: Human acute T lymphocytic leukemia cells (Molt-4); test: Tumor cell proliferation inhibition (CellTiter-Meiluncell Luminescent Cell Viability Assay), Molt-4; conditions: MOLT-4, 96 h, read-out: inhibitory activity (IC50, nM) against tumor cells proliferation, Molt 4
[3] = tested on: Human breast cancer cells (MDA-MB-231); test: Tumor cell proliferation inhibition (CellTiter-Meiluncell Luminescent Cell Viability Assay), MDA-MB-231; conditions: MDA-MB-231, 96 h, read-out: inhibitory activity (IC50, nM) against tumor cells proliferation, MDA-MB-231
WEE1 = biological target: T7, WEE1 (Homo sapiens, UniProt P30291+Q96SW2); test: Western-blot assay of substrate protein degradation in hPBMCs, WEE1; assay type: cell-based; conditions: 24 hours of compound treatment, compounds tested at 50 nM and 500 nM (concentration of the table not stated)
T7 construct: endogenous in cells; host or cells: hPBMCs (Milecell Biotechnologies)
T7 sequence (P30291 whole entry): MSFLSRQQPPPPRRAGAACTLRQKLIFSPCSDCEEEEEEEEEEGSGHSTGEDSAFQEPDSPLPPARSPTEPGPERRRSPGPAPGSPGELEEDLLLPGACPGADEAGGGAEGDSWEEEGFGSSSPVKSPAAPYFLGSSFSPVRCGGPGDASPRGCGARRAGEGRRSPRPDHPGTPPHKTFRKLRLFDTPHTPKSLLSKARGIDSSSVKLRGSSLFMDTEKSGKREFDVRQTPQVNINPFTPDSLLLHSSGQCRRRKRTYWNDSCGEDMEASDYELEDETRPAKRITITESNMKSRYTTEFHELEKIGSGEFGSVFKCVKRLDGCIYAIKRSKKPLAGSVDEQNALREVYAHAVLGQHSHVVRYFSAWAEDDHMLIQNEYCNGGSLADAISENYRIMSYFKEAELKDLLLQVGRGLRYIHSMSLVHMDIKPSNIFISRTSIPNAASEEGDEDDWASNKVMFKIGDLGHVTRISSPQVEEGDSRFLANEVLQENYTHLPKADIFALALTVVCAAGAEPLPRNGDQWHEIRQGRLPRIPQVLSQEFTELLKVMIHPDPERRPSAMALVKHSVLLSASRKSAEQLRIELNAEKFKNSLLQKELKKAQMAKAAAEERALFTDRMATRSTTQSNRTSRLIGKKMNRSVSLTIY
T7 sequence (Q96SW2 whole entry): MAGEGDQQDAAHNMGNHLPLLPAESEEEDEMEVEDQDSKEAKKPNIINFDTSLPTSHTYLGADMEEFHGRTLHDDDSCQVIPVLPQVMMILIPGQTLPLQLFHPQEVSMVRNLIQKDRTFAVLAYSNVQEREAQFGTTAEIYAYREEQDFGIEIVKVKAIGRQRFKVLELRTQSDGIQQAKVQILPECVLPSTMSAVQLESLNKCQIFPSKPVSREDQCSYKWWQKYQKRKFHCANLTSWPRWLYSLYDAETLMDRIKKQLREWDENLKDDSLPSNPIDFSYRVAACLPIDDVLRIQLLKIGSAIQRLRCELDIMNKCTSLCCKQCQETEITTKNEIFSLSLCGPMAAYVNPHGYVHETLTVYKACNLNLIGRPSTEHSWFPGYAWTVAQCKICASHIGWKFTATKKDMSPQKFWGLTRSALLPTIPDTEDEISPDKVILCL
T7 sequence (Q16531 whole entry partner): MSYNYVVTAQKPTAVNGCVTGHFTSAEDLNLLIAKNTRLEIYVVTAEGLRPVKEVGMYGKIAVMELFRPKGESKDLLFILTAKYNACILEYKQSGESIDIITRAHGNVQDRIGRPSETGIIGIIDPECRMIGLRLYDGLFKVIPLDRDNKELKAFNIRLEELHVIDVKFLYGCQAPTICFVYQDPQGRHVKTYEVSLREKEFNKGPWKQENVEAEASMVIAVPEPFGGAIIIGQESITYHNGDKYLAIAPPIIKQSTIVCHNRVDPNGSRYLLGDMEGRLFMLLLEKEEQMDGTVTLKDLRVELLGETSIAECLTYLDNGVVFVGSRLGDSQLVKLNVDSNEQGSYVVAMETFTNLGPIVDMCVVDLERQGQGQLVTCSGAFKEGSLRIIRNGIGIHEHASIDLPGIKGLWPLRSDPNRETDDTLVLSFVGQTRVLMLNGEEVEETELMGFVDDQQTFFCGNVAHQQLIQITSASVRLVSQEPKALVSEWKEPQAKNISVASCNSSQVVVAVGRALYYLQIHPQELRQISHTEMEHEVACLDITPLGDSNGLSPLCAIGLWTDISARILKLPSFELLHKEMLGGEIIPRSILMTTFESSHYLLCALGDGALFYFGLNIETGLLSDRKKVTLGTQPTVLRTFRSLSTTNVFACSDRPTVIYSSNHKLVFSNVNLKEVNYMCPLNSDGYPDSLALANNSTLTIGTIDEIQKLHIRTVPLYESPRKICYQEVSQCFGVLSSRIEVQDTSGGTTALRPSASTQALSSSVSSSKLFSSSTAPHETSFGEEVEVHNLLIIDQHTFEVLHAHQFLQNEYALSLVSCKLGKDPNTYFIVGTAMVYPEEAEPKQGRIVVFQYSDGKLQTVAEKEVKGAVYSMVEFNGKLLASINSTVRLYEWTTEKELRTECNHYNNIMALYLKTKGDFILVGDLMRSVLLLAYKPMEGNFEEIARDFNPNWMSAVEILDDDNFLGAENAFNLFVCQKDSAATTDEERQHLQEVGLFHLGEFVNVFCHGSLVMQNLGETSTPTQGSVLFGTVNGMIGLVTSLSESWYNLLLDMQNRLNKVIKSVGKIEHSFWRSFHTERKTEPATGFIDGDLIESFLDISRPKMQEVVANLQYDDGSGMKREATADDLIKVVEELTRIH

T2 sequence (Q9UKT9 whole entry): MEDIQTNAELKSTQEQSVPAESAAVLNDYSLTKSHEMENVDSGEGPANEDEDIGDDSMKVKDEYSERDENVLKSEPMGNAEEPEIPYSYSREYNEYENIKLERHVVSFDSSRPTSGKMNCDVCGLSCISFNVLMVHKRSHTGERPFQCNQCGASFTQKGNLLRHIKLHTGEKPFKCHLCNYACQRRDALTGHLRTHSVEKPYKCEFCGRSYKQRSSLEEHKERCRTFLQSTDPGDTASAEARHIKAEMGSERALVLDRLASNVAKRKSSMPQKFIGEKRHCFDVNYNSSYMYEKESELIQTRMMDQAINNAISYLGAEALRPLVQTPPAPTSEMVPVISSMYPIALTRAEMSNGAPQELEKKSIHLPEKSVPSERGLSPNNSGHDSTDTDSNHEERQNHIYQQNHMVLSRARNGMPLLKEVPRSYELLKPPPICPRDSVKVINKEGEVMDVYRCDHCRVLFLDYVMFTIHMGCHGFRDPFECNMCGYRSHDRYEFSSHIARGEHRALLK
T2 sequence (Q96SW2 whole entry): as the sequence (Q96SW2 whole entry) above
T2 sequence (Q16531 whole entry partner): as the sequence (Q16531 whole entry partner) above
T4 sequence (Q13422 whole entry): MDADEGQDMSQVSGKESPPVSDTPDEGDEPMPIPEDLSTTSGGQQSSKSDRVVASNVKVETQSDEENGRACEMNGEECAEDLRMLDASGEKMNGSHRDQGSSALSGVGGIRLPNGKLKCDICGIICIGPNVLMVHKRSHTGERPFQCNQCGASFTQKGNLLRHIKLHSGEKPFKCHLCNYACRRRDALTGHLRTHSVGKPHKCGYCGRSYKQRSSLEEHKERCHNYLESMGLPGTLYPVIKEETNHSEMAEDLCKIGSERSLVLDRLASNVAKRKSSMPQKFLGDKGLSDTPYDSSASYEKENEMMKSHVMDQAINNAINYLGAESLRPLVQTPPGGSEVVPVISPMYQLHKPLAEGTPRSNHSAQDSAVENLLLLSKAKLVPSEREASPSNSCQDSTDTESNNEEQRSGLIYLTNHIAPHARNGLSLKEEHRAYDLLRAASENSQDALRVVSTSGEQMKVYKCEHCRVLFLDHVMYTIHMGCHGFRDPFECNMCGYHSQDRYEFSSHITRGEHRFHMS
T4 sequence (Q96SW2 whole entry): as the sequence (Q96SW2 whole entry) above
T4 sequence (Q16531 whole entry partner): as the sequence (Q16531 whole entry partner) above
T5 sequence (Q9UKS7 whole entry): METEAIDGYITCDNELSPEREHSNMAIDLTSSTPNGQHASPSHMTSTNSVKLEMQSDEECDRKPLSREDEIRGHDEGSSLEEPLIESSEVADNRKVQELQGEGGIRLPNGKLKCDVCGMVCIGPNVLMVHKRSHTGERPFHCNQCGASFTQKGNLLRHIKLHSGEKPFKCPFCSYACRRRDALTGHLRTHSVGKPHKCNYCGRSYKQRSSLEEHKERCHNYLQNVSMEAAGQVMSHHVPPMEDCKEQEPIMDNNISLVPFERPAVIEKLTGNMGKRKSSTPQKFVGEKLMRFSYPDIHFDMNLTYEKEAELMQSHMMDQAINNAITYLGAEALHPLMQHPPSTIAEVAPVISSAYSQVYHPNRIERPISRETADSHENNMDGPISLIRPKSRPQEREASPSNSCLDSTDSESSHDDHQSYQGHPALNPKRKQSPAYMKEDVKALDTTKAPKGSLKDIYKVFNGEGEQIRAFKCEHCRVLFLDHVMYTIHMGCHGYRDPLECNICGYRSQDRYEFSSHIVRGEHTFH
T5 sequence (Q96SW2 whole entry): as the sequence (Q96SW2 whole entry) above
T5 sequence (Q16531 whole entry partner): as the sequence (Q16531 whole entry partner) above
T6 sequence (P15170 whole entry): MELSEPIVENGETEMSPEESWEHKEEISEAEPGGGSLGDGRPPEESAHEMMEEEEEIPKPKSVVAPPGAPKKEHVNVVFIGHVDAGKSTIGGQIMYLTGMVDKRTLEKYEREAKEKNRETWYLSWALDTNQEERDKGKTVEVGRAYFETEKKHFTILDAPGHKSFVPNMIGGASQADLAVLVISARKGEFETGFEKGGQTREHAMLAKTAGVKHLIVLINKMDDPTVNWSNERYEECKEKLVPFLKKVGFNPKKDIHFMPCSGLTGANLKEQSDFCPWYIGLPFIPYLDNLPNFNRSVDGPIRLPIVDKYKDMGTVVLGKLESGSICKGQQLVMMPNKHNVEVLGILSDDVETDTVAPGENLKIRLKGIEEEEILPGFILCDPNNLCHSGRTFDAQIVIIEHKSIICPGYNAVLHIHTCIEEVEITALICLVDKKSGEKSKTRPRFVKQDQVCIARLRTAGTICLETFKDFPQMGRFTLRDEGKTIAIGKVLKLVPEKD
T6 sequence (Q96SW2 whole entry): as the sequence (Q96SW2 whole entry) above
T6 sequence (Q16531 whole entry partner): as the sequence (Q16531 whole entry partner) above
T3 sequence (Q96SW2 whole entry): as the sequence (Q96SW2 whole entry) above

Row | SMILES | CK1a substrate protein remaining % (CK1α) | IC50 (NCI-H1975) | IKZF3 substrate protein remaining % (IKZF3) | IC50 (TMD8) | IC50 [1] | IKZF 1 substrate protein remaining % (IKZF1) | IKZF2 substrate protein remaining % (IKZF2) | GSPT1 substrate protein remaining % (GSPT1) | IC50 [2] | IC50 [3] | Weel substrate protein remaining % (WEE1)
1 | O=C1CCC(N2Cc3cc(CN4CC=C(c5ccsc5)CC4)ccc3C2=O)C(=O)N1 (centres unmarked) [GT-04585, 3-(1-oxo-5-((4-(thiophen-3-yl)-3,6-dihydropyridin-1(2H)-yl)methyl)isoindolin-2-yl)piperidine-2,6-dione] | A (0% ≤ substrate protein remaining % ≤ 80%) | 10 to 50 nM | A (0% ≤ substrate protein remaining % ≤ 80%) | 10 to 50 nM | < 500 nM | A (0% ≤ substrate protein remaining % ≤ 80%) | A (0% ≤ substrate protein remaining % ≤ 80%) | A (0% ≤ substrate protein remaining % ≤ 80%) | 1 to 5 nM | 5 to 10 nM | A (0% ≤ substrate protein remaining % ≤ 80%)
2 | O=C1CCC(N2Cc3cc(CN4CCC(c5ccsc5)CC4)ccc3C2=O)C(=O)N1 (centres unmarked) [GT-04586, 3-(1-oxo-5-((4-(thiophen-3-yl)piperidin-1-yl)methyl)isoindolin-2-yl)piperidine-2,6-dione] | B (80%< substrate protein remaining %≤ 100%) | 100 to 500 nM | B (80%< substrate protein remaining %≤ 100%) | 100 to 500 nM | 500 to 1000 nM | B (80%< substrate protein remaining %≤ 100%) | A (0% ≤ substrate protein remaining % ≤ 80%) | A (0% ≤ substrate protein remaining % ≤ 80%) | 5 to 10 nM | 10 to 50 nM | B (80%< substrate protein remaining %≤ 100%)
3 | Cc1cc(C2=CCN(Cc3ccc4c(c3)CN(C3CCC(=O)NC3=O)C4=O)CC2)cs1 (centres unmarked) [GT-04587, 3-(5-((4-(5-methylthiophen-3-yl)-3,6-dihydropyridin-1(2H)-yl)methyl)-1-oxoisoindolin-2-yl)piperidine-2,6-dione] | B (80%< substrate protein remaining %≤ 100%) | 5 to 10 nM | A (0% ≤ substrate protein remaining % ≤ 80%) | 10 to 50 nM | 500 to 1000 nM | A (0% ≤ substrate protein remaining % ≤ 80%) | A (0% ≤ substrate protein remaining % ≤ 80%) | A (0% ≤ substrate protein remaining % ≤ 80%) | 1 to 5 nM | 1 to 5 nM | A (0% ≤ substrate protein remaining % ≤ 80%)
4 | Cc1cc(C2CCN(Cc3ccc4c(c3)CN(C3CCC(=O)NC3=O)C4=O)CC2)cs1 (centres unmarked) [GT-04588, 3-(5-((4-(5-methylthiophen-3-yl)piperidin-1-yl)methyl)-1-oxoisoindolin-2-yl)piperidine-2,6-dione] | B (80%< substrate protein remaining %≤ 100%) | 50 to 100 nM | B (80%< substrate protein remaining %≤ 100%) | 100 to 500 nM | 1000 to 1500 nM | B (80%< substrate protein remaining %≤ 100%) | A (0% ≤ substrate protein remaining % ≤ 80%) | A (0% ≤ substrate protein remaining % ≤ 80%) | 5 to 10 nM | 10 to 50 nM | B (80%< substrate protein remaining %≤ 100%)
5 | O=C1CCC(N2Cc3cc(CN4CC=C(c5ccoc5)CC4)ccc3C2=O)C(=O)N1 (centres unmarked) [GT-04589, 3-(5-((4-(furan-3-yl)-3,6-dihydropyridin-1(2H)-yl)methyl)-1-oxoisoindolin-2-yl)piperidine-2,6-dione] | B (80%< substrate protein remaining %≤ 100%) | 100 to 500 nM | B (80%< substrate protein remaining %≤ 100%) | 500 to 1000 nM | < 500 nM | B (80%< substrate protein remaining %≤ 100%) | A (0% ≤ substrate protein remaining % ≤ 80%) | A (0% ≤ substrate protein remaining % ≤ 80%) | 10 to 50 nM | 100 to 500 nM | B (80%< substrate protein remaining %≤ 100%)
6 | O=C1CCC(N2Cc3cc(CN4CC=C(c5c[nH]c6ncccc56)CC4)ccc3C2=O)C(=O)N1 (centres unmarked) [GT-04602, 3-(5-((4-(1H-pyrrolo[2,3-b]pyridin-3-yl)-3,6-dihydropyridin-1(2H)-yl)methyl)-1-oxoisoindolin-2-yl)piperidine-2,6-dione] | A (0% ≤ substrate protein remaining % ≤ 80%) | 10 to 50 nM | A (0% ≤ substrate protein remaining % ≤ 80%) | 10 to 50 nM | < 500 nM | A (0% ≤ substrate protein remaining % ≤ 80%) | A (0% ≤ substrate protein remaining % ≤ 80%) | A (0% ≤ substrate protein remaining % ≤ 80%) | 1 to 5 nM | 10 to 50 nM | A (0% ≤ substrate protein remaining % ≤ 80%)
7 | O=C1CCC(N2Cc3cc(CN4CCN(c5cc(Cl)cc(Cl)c5)CC4)ccc3C2=O)C(=O)N1 (centres unmarked) [GT-04614, 3-(5-((4-(3,5-dichlorophenyl)piperazin-1-yl)methyl)-1-oxoisoindolin-2-yl)piperidine-2,6-dione] | B (80%< substrate protein remaining %≤ 100%) | 10 to 50 nM | B (80%< substrate protein remaining %≤ 100%) | 10 to 50 nM | 500 to 1000 nM | B (80%< substrate protein remaining %≤ 100%) | B (80%< substrate protein remaining %≤ 100%) | A (0% ≤ substrate protein remaining % ≤ 80%) | 1 to 5 nM | 10 to 50 nM | A (0% ≤ substrate protein remaining % ≤ 80%)
8 | O=C1CCC(N2Cc3cc(CN4CCN(c5nccc(Cl)c5Br)CC4)ccc3C2=O)C(=O)N1 (centres unmarked) [GT-04615, 3-(5-((4-(3-bromo-4-chloropyridin-2-yl)piperazin-1-yl)methyl)-1-oxoisoindolin-2-yl)piperidine-2,6-dione] | A (0% ≤ substrate protein remaining % ≤ 80%) | 100 to 500 nM | A (0% ≤ substrate protein remaining % ≤ 80%) | 500 to 1000 nM | 500 to 1000 nM | A (0% ≤ substrate protein remaining % ≤ 80%) | A (0% ≤ substrate protein remaining % ≤ 80%) | A (0% ≤ substrate protein remaining % ≤ 80%) | 10 to 50 nM | 100 to 500 nM | A (0% ≤ substrate protein remaining % ≤ 80%)
9 | O=C1CCC(N2Cc3cc(CN4CC=C(c5ccco5)CC4)ccc3C2=O)C(=O)N1 (centres unmarked) [GT-04617, 3-(5-((4-(furan-2-yl)-3,6-dihydropyridin-1(2H)-yl)methyl)-1-oxoisoindolin-2-yl)piperidine-2,6-dione] | B (80%< substrate protein remaining %≤ 100%) | 100 to 500 nM | A (0% ≤ substrate protein remaining % ≤ 80%) | 100 to 500 nM | < 500 nM | A (0% ≤ substrate protein remaining % ≤ 80%) | A (0% ≤ substrate protein remaining % ≤ 80%) | A (0% ≤ substrate protein remaining % ≤ 80%) | 5 to 10 nM | 10 to 50 nM | A (0% ≤ substrate protein remaining % ≤ 80%)
10 | O=C1CCC(N2Cc3cc(CN4CC=C(c5cncc(Cl)c5)CC4)ccc3C2=O)C(=O)N1 (centres unmarked) [GT-04620, 3-(5-((5-chloro-3',6'-dihydro-[3,4'-bipyridin]-1'(2'H)-yl)methyl)-1-oxoisoindolin-2-yl)piperidine-2,6-dione] | B (80%< substrate protein remaining %≤ 100%) | 10 to 50 nM | A (0% ≤ substrate protein remaining % ≤ 80%) | 10 to 50 nM | 500 to 1000 nM | A (0% ≤ substrate protein remaining % ≤ 80%) | A (0% ≤ substrate protein remaining % ≤ 80%) | A (0% ≤ substrate protein remaining % ≤ 80%) | 1 to 5 nM | 10 to 50 nM | A (0% ≤ substrate protein remaining % ≤ 80%)
